Experimental data as given in PMC5217372, “Activation of SsoPK4, an Archaeal eIF2α Kinase Homolog, by Oxidized CoA” (Proteomes, 2015).

Test system: rSsoPK4(284–635)
Test: Protein kinase activity assay (filter paper method, [γ-32P]ATP, 65 °C) of rSsoPK4(284–635)
Type: biochemical, Sulfolobus solfataricus
Settings: for perturbed the activity of rSsoPK4: compound at 100 µM; for Inhibitor: effector at 100 µM, MBP as phosphoacceptor substrate
Method: Protein kinase activity was routinely assayed by the filter paper method of Corbin and Reimann as modified by Lower and Kennelly. The final volume of the assays was typically 50 μL. The quantity of rSsoPK4 assayed ranged from 0.1 to 5.0 µg. Both MgCl2 and MnCl2 were included at a final concentration of 5 mM each. The final concentration of [γ-^32P]ATP was 100 μM. The specific activity of the [γ-^32P]ATP generally ranged from 2 to 5 × 10^15 cpm/mol. Phosphoacceptor proteins were generally present at a concentration of 0.5–1.0 µg/µL. The assay mixture was typically incubated for a period of 30 min to one hour at 65 °C in 50 mM MOPS pH 7.0. On occasion, the proteins within the assay mixture were resolved by SDS-PAGE in order to identify the specific polypeptides that were phosphorylated. Radiolabeled species were visualized using an Instant Imager from Packard (Downers Grove, IL, USA).

| perturbed the activity of rSsoPK4 | Compound | Inhibitor |
| --- | --- | --- |
| perturbed the activity | Nc1ncnc2c1ncn2[C@@H]1O[C@H](CO)[C@H]2OP(=O)(O)O[C@H]21 [2ʹ,3ʹ-cAMP] | Y (designated as inhibitors (Y) if they were observed to stimulate or reduce, respectively, catalytic activity by greater than 20% relative to controls lacking added effectors) |
| perturbed the activity | Nc1ncnc2c1ncn2[C@@H]1O[C@H](CO)[C@@H](OP(=O)(O)O)[C@H]1O [3ʹ-AMP] | Y (designated as inhibitors (Y) if they were observed to stimulate or reduce, respectively, catalytic activity by greater than 20% relative to controls lacking added effectors) |
| perturbed the activity | Nc1ncnc2c1ncn2[C@@H]1O[C@H](COP(=O)(O)O)[C@@H](O)[C@H]1O [5'AMP, 5ʹ-AMP] | Y (designated as inhibitors (Y) if they were observed to stimulate or reduce, respectively, catalytic activity by greater than 20% relative to controls lacking added effectors) |
| – | Nc1ccn([C@@H]2O[C@H](COP(=O)(O)O)[C@@H](O)[C@H]2O)c(=O)n1 [5ʹ-CMP] | N (Where a change of ±20% or less in enzyme activity was observed, the compound was designated as non-inhibitory (N)) |
| – | Nc1nc2c(ncn2[C@@H]2O[C@H](COP(=O)(O)O)[C@@H](O)[C@H]2O)c(=O)[nH]1 [5ʹ-GMP] | N (Where a change of ±20% or less in enzyme activity was observed, the compound was designated as non-inhibitory (N)) |
| – | O=c1ccn([C@@H]2O[C@H](COP(=O)(O)O)[C@@H](O)[C@H]2O)c(=O)[nH]1 [5ʹ-UMP] | N (Where a change of ±20% or less in enzyme activity was observed, the compound was designated as non-inhibitory (N)) |
| – | Nc1ncnc2c1ncn2[C@H]1C[C@H](O)[C@@H](COP(=O)(O)O)O1 [5ʹ-dAMP] | N (Where a change of ±20% or less in enzyme activity was observed, the compound was designated as non-inhibitory (N)) |
| perturbed the activity | Nc1ncnc2c1ncn2[C@@H]1O[C@H](COP(=O)(O)OP(=O)(O)O)[C@@H](O)[C@H]1O [ADP] | Y (designated as inhibitors (Y) if they were observed to stimulate or reduce, respectively, catalytic activity by greater than 20% relative to controls lacking added effectors) |
| – | CC(=O)SCCNC(=O)CCNC(=O)[C@H](O)C(C)(C)COP(=O)(O)OP(=O)(O)OC[C@H]1O[C@@H](n2cnc3c(N)ncnc32)[C@H](O)[C@@H]1OP(=O)(O)O [Acetyl-CoA] | N (Where a change of ±20% or less in enzyme activity was observed, the compound was designated as non-inhibitory (N)) |
| perturbed the activity | Nc1ncnc2c1ncn2[C@@H]1O[C@H](COP(=O)(O)OS(=O)(=O)O)[C@@H](O)[C@H]1O [Adenosine phosphosulfate] | Y (designated as inhibitors (Y) if they were observed to stimulate or reduce, respectively, catalytic activity by greater than 20% relative to controls lacking added effectors) |
| – | CC(C)(COP(=O)(O)OP(=O)(O)OC[C@H]1O[C@@H](n2cnc3c(N)ncnc32)[C@H](O)[C@@H]1OP(=O)(O)O)[C@@H](O)C(=O)NCCC(=O)NCCS [CoASH, reduced CoA] | N (Where a change of ±20% or less in enzyme activity was observed, the compound was designated as non-inhibitory (N)) |
| – | Cc1cc2nc3c(=O)[nH]c(=O)nc-3n(C[C@H](O)[C@H](O)[C@H](O)COP(=O)(O)OP(=O)(O)OC[C@H]3O[C@@H](n4cnc5c(N)ncnc54)[C@H](O)[C@@H]3O)c2cc1C [FAD^+] | N (Where a change of ±20% or less in enzyme activity was observed, the compound was designated as non-inhibitory (N)) |
| – | Nc1nc2c(ncn2[C@@H]2O[C@H](COP(=O)(O)OP(=O)(O)OP(=O)(O)O)[C@@H](O)[C@H]2O)c(=O)[nH]1 [GTP] | N (Where a change of ±20% or less in enzyme activity was observed, the compound was designated as non-inhibitory (N)) |
| – | NC(=O)C1=CN([C@@H]2O[C@H](COP(=O)(O)OP(=O)(O)OC[C@H]3O[C@@H](n4cnc5c(N)ncnc54)[C@H](O)[C@@H]3O)[C@@H](O)[C@H]2O)C=CC1 [NADH] | N (Where a change of ±20% or less in enzyme activity was observed, the compound was designated as non-inhibitory (N)) |
